Laboratory results from patent US10385038B2, “Pyridine substituted 2-aminopyridine protein kinase inhibitor crystal” (Chia Tai Tianqing Pharmaceutical Group Co., Ltd., priority 2015, dated 2019).
Read-outs that look alike come from different tables or passages of the source.

How the values were obtained:
[1] = Pharmacokinetic test, intragastric administration to Beagle dogs, plasma LC-MS/MS; assay type: in vivo; conditions: for Cmax / AUC(0-t) / AUC(0-inf) / Tmax / bioavailability: both sexes, dog, plasma; for Cmax / AUC(0-t) / AUC(0-inf) / Tmax: po; for Cmax / AUC(0-t) / AUC(0-inf) / Tmax / t1/2z: suspension in 0.5% CMC-Na, citrate crystal 5.52 mg/kg, compound of Formula I 4 mg/kg (equimolar as base); for AUC(0-t): 0-36 h, trapezoidal; for AUC(0-inf): extrapolated Ct/λ; for Tmax: mean ± spread; for bioavailability: beagle, oral, crystal of citrate salt versus compound of Formula I
Excerpt: In this study, LC-MS/MS was used to determine the plasma concentrations of drugs after the compound of Formula I and crystals of citrate salt thereof were intragastrically administered to Beagle dogs, and the effects of the crystals of citrate salt of the compound of Forumla I on the absorption behavior were observed.
The instrumentation system included the LC-10ADvp (Shimadzu, Japan) LC system and the TSQ Quantum Access triple quadrupole tandem mass spectrometer equipped with an electrospray ionization (ESI) source and Xcalibur 2.0.7 data processing system (Thermo Scientific, USA); the operating software was DAS2.1.1; other instruments were One hundred thousandth electronic balance (Mettler Toledo); Centrifugal rotary concentrator (LABCONCO, USA); High-speed refrigerated centrifuge (Model 5430-R, Eppendorf); Refrigerator (Model BCD-281E, Electrolux); Low temperature refrigerator (Model FORMA 700 SERIES, Thermo […]), etc.
Column: Thermo C18 LC column (size: 150 L×2.1 mm, 5 μm); column temperature: 40° C.; Mobile phase A: aqueous phase (containing 5 mM ammonium acetate and 0.1% formic acid); mobile phase B: methanol; gradient elution: 0.01 min, 20%; 0.5 min, 20%; 1.5 min, 80%; 4.5 min, 80%, 5 min, 20%, 6 min, stop (phase B). The flow rate was 0.3 mL/min. Benazeprilat was used as the internal standard for measurement.
The measurement was carried out by LC-MS/MS. The ion source was an ESI source and detection was performed in the positive ionization mode; the spray voltage was 3.8 kV; the heated capillary temperature was 350° C.; the pressure of the sheath gas (N2) was 35 Arb; the pressure of the auxiliary gas (N2) was 15 Arb; and voltages for collision induced dissociation (CID) were 25 eV and 25 eV (internal standard), respectively. The scanning mode was selective reaction monitoring (SRM), and the ion reactions for quantitative analysis were m/z 506.3-315.2 (the compound of Formula I) and m/z 397-351 (internal standard), respectively.
Six adult healthy beagle dogs, half male and half female, each weighing 9-11 kg, were randomly divided into two groups, and cross-administrated with the compound of Formula I and a crystal of citrate salt thereof.
After fasted for 12 h, the dogs were intragastrically administered with the crystal of citrate salt of the compound of Formula I and with the compound of Formula I (both were formulated with 0.5% CMC-Na as a suspension) at 5.52 mg/kg and 4 mg/kg (equimolar amounts based on the base form), respectively. A blank blood sample was taken before administration; and venous blood samples, about 1.0 ml each, were taken 0.5, 1, 2, 3, 4, 6, 8, 12, 14, 24, 36 hours after administration, placed in test tubes containing heparin, and centrifuged. The plasma fractions were isolated and stored at −80° C. After the washout period (7 days), the two groups of animals were each cross-administrated with the corresponding second drug, and the concentration of compound of Formula I in plasma samples was measured. The plasma concentration-time data for each test animal were input into a computer and the relevant pharmacokinetic parameters were calculated using the pharmacokinetic professional software DAS2.1.1, wherein Cmax and Tmax were measured values. AUC(0-t) and AUC(0-∞) are the area under the plasma concentration-time curve for the period of measurement and the total area under the plasma concentration-time curve, respectively. The AUC(0-t) was estimated by the trapezoidal method from the measured plasma concentrations, and the AUC(0-∞) was calculated from the AUC(0-t) plus the remaining area in the range t→∞, which can be calculated by the following equation: AUC(t-∞)=Ct/λ
In the above equation, Ct is the last plasma concentration measured, and λ is the elimination rate constant in the terminal portion of the plasma concentration.

[2] = Hygroscopicity test (Chinese Pharmacopoeia 2005, Appendix XIX J); assay type: physicochemical
[3] = Stability test (Chinese Pharmacopoeia 2010, Appendix XIX C), total impurities by HPLC; assay type: physicochemical; conditions: for Total impurities: citrate salt
Description: Stability was examined for 10 days under the conditions of 40° C., 60° C., 75% relative humidity (25° C.), 92.5% relative humidity (25° C.), or light illumination (5000 lx±500 lx), respectively. Samples were taken on day 0 and day 10, and the total impurities thereof were assayed by HPLC.
Column: Waters XBridge C18 (5 μm, 4.6×150 mm)
Mobile phase A: 0.01 M aqueous ammonium formate, to which 0.1% formic acid was added, and triethylamine was also added to adjust the pH to 7.4
Mobile phase B: acetonitrile
Linear gradient elution, with the following procedure: […]
Detection wavelength: diode array detector (280 nm)
Column temperature: 40° C.
Solvent: acetonitrile-water (1:1)
Preparation of the test solution: the solution was taken and accurately weighed, dissolved in a solvent and diluted to a solution at 1 mg per 1 mL, as the test solution.

[4] = 10 days at 40° C., 60° C., 75% RH, 92.5% RH or light

Question: What does the source list for `COc1cc(N2CCNC[C@@H]2C)ncc1-c1cnc(N)c(O[C@H](C)c2c(Cl)ccc(F)c2Cl)c1` [Example 1, 5-((R)-1-(2,6-dichloro-3-fluorophenyl)ethoxy)-4′-methoxy-6′-((S)-2-methylpiperazin-1-yl)-3,3′-bipyridin-6-amine]?
Answer: Cmax [1]: 50 ± 20.8 ng/mL; AUC(0-t) [1]: 502 ± 176 ng·h/mL; AUC(0-inf) [1]: 517 ± 181 ng·h/mL; Tmax [1]: 3.17 ± 1.6 h; t1/2z [1]: 6.71 ± 2.55 h

Question: Which results are given for `COc1cc(N2CCNC[C@@H]2C)ncc1-c1cnc(N)c(O[C@H](C)c2c(Cl)ccc(F)c2Cl)c1.O=C(O)CC(O)(CC(=O)O)C(=O)O` [Example 8, 5-((R)-1-(2,6-dichloro-3-fluorophenyl)ethoxy)-4′-methoxy-6′-((S)-2-methylpiperazin-1-yl)-3,3′-bipyridin-6-amine citrate salt]?
Answer: Hygroscopic weight gain compared to the compound of Formula I and the other salts thereof (in words) [2]: obviously lower; Total impurities ([3]; 40° C., 10 days, listed as crystal form B of citrate salt of the compound of Formula I): 0.96%; Total impurities ([3]; 60° C., 10 days, listed as crystal form B of citrate salt of the compound of Formula I): 1.19%; Total impurities ([3]; Initial state, 0 day, listed as crystal form B of citrate salt of the compound of Formula I): 0.89%; Total impurities ([3]; Light illumination (5000 lx±500 lx), 10 days, listed as crystal form B of citrate salt of the compound of Formula I): 0.99%; Total impurities ([3]; Relative humidity 75%, 25° C., 10 days, listed as crystal form B of citrate salt of the compound of Formula I): 0.94%; Total impurities ([3]; Relative humidity 92.5%, 25° C., 10 days, listed as crystal form B of citrate salt of the compound of Formula I): 0.95%

Question: Which “Degree and rate of absorption compared to the compound of Formula I (in words)” value [1] does the source give for `COc1cc(N2CCNC[C@@H]2C)ncc1-c1cnc(N)c(O[C@H](C)c2c(Cl)ccc(F)c2Cl)c1.O=C(O)CC(O)(CC(=O)O)C(=O)O` [Example 2, 5-((R)-1-(2,6-dichloro-3-fluorophenyl)ethoxy)-4′-methoxy-6′-((S)-2-methylpiperazin-1-yl)-3,3′-bipyridin-6-amine citrate salt] here?
Answer: better degree and rate of absorption

Question: And the bioavailability ([1]; from AUC(0-t), read-out: Relative bioavailability F1)?
Answer: 114 ± 68.3%

Question: What about the bioavailability ([1]; from AUC(0-∞), read-out: Relative bioavailability F2) of the same compound?
Answer: 113 ± 68.3%

Question: What about the Cmax [1] of the same compound?
Answer: 63 ± 29.2 ng/mL

Question: And the AUC(0-t) [1]?
Answer: 570 ± 343 ng·h/mL

Question: What about the AUC(0-inf) [1] of the same compound?
Answer: 586 ± 353 ng·h/mL

Question: And the Tmax [1]?
Answer: 2.33 ± 1.03 h

Question: What about the t1/2z [1] of the same compound?
Answer: 5.94 ± 1.59 h

Question: What about the “Hygroscopic weight gain compared to the compound of Formula I and the other salts thereof (in words)” value [2] of the same compound?
Answer: obviously lower

Question: What about the Total impurities ([3]; 40° C., 10 days, listed as crystal form A of citrate salt of the compound of Formula I) of the same compound?
Answer: 0.77%

Question: And the Total impurities ([3]; 60° C., 10 days, listed as crystal form A of citrate salt of the compound of Formula I)?
Answer: 0.89%

Question: And the “Stability (in words)” value [3, 4]?
Answer: good stability

Question: And the “Stability compared between crystal forms (in words)” value [3, 4]?
Answer: better than that of crystal form B

Question: And the Total impurities ([3]; Initial state, 0 day, listed as crystal form A of citrate salt of the compound of Formula I)?
Answer: 0.76%

Question: And the Total impurities ([3]; Light illumination (5000 lx±500 lx), 10 days, listed as crystal form A of citrate salt of the compound of Formula I)?
Answer: 0.78%

Question: What about the Total impurities ([3]; Relative humidity 75%, 25° C., 10 days, listed as crystal form A of citrate salt of the compound of Formula I) of the same compound?
Answer: 0.79%

Question: And the Total impurities ([3]; Relative humidity 92.5%, 25° C., 10 days, listed as crystal form A of citrate salt of the compound of Formula I)?
Answer: 0.77%

Question: With `COc1cc(N2CCNC[C@@H]2C)ncc1-c1cnc(N)c(O[C@H](C)c2c(Cl)ccc(F)c2Cl)c1.O=C(O)CC(O)(CC(=O)O)C(=O)O` [Example 12, 5-((R)-1-(2,6-dichloro-3-fluorophenyl)ethoxy)-4′-methoxy-6′-((S)-2-methylpiperazin-1-yl)-3,3′-bipyridin-6-amine citrate salt] as the compound, how does the “Hygroscopic weight gain compared to the compound of Formula I and the other salts thereof (in words)” value [2] read?
Answer: obviously lower
